# Columns and labels:
# Human Calpain 2/NS1 = molecular target: T1, Human Calpain 2/NS1 (Homo sapiens, UniProt P17655); assay: Calpain inhibition continuous fluorescence (FRET) assay, Human Calpain 2/NS1; assay type: biochemical; conditions: read-out: Human Calpain 2/NS1 IC50
# T1 sequence (P17655 1-700): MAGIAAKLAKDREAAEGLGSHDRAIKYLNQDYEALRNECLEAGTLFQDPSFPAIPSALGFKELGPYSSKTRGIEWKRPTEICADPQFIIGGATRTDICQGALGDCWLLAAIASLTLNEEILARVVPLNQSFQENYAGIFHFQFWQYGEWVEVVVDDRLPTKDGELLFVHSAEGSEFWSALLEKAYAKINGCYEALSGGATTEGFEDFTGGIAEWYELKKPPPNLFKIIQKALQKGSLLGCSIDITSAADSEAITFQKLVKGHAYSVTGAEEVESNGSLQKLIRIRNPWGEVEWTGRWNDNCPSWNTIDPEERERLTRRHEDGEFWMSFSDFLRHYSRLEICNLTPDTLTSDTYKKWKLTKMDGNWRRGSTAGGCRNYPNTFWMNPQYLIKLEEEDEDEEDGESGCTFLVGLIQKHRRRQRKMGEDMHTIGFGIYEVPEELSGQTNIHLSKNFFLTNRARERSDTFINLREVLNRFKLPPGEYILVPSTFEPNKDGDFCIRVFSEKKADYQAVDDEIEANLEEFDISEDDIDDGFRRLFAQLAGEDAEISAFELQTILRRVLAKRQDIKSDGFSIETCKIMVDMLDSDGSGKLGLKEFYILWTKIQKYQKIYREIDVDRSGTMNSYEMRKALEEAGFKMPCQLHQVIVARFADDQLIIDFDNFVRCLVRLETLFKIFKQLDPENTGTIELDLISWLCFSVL
# T1 sequence (P04632 1-268 partner): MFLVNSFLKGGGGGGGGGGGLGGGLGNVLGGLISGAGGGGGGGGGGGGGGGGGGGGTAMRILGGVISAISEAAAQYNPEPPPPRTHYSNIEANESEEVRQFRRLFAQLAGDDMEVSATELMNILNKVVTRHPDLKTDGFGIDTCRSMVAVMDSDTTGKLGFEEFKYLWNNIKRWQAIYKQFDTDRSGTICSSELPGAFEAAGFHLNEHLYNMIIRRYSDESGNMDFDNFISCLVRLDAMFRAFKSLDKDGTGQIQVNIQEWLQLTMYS
# Procedure, shortened: (§1)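 Continuous FRET read (ex 490/em 520 nm, 10 min) of calpain 1, 2 or 9 cleaving an internally quenched 5-FAM peptide, triggered by substrate with CaCl2 after enzyme–inhibitor incubation at ambient 25 °C, pH 7.5 Tris/NaCl/DTT buffer. IC50 from initial rates (1-5 min) via 4-parameter fit.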
# Human Calpain 9/NS1 = molecular target: T2, Human Calpain 9/NS1 (Homo sapiens, UniProt O14815); assay: Calpain inhibition continuous fluorescence (FRET) assay, Human Calpain 9/NS1; assay type: biochemical; conditions: read-out: Human Calpain 9/NS1 IC50
# T2 sequence (O14815 1-690): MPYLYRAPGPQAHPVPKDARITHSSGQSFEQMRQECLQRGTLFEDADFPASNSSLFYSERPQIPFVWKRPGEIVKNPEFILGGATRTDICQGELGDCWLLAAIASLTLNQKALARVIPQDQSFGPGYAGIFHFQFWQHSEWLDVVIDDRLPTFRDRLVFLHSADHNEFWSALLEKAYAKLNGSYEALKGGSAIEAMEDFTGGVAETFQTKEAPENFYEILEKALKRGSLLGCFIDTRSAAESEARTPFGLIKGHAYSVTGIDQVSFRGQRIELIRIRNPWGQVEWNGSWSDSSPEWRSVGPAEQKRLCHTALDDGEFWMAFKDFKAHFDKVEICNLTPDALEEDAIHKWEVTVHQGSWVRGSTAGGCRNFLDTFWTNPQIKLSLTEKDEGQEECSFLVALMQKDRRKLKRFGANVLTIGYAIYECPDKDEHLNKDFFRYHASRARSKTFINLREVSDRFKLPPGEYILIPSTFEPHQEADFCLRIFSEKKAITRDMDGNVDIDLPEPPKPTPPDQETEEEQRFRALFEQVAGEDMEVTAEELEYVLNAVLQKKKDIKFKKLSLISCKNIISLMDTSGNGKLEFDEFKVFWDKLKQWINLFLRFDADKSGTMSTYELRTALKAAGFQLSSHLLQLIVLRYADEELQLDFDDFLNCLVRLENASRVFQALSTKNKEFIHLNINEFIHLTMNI
# T2 sequence (P04632 1-268 partner): T1 sequence (P04632 1-268 partner)
# Procedure, shortened: as §1
# [1] = tested on: Calpain activity in SH-SY5Y cells; assay: SH-SY5Y + AMC fluorescence assay (Suc-LLVY-AMC substrate); assay type: cell-based; conditions: read-out: SH-SY5Y + AMC IC50
# [2] = tested on: Calpain activity in SH-SY5Y cells (SBDP-150); assay: SH-SY5Y Spectrin western blot assay (SBDP-150 breakdown product, A23187-induced); assay type: cell-based; conditions: Homo sapiens; SH-SY5Y cells, A23187-induced SBDP-150, western blot; read-out: SH-SY5Y Spectrin IC50
# Human Calpain 1/NS1 = molecular target: T3, Human Calpain 1/NS1 (Homo sapiens, UniProt P07384); assay: Calpain inhibition continuous fluorescence (FRET) assay, Human Calpain 1/NS1; assay type: biochemical; conditions: read-out: Human Calpain 1/NS1 IC50
# T3 sequence (P07384 1-714): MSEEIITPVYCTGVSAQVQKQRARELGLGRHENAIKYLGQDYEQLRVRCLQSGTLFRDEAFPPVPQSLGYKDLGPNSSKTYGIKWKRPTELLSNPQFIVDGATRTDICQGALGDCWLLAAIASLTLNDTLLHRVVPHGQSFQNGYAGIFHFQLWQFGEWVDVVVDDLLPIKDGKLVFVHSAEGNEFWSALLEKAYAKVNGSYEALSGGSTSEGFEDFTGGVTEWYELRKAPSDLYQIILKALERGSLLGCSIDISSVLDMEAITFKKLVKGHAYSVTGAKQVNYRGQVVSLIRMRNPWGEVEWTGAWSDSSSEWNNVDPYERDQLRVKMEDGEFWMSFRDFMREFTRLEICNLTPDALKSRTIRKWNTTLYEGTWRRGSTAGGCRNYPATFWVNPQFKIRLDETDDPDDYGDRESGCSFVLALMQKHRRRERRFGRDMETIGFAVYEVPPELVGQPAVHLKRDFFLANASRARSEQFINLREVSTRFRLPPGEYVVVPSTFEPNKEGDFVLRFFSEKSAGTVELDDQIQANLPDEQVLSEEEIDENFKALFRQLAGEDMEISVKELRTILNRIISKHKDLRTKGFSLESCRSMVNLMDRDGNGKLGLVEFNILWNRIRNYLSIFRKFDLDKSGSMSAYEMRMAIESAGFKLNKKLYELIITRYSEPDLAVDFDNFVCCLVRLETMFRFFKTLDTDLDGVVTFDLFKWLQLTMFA
# T3 sequence (P04632 1-268 partner): T1 sequence (P04632 1-268 partner)
# Procedure, shortened: as §1
SMILES,IC50 (Human Calpain 2/NS1),IC50 (Human Calpain 9/NS1),IC50 [1],IC50 [2],IC50 (Human Calpain 1/NS1)
"Cc1cc(F)cc(-c2nn(C(F)F)cc2C(=O)NC(Cc2ccccc2)C(=O)C(N)=O)c1 (centres unmarked) [Compound 554, N-(4-amino-3,4-dioxo-1-phenylbutan-2-yl)-1-(difluoromethyl)-3-(3-fluoro-5-methylphenyl)-1H-pyrazole-4-carboxamide]",< 3 µM,< 3 µM,< 10 µM,< 10 µM,< 3 µM
NC(=O)C(=O)C(Cc1ccccc1)NC(=O)c1cn(C(F)F)nc1-c1cccc2c1OCCO2 (centres unmarked) [Compound 555],< 3 µM,< 3 µM,< 10 µM,> 25 µM,< 3 µM
"Cc1ccc(F)cc1-c1oncc1C(=O)NC(Cc1ccccc1)C(=O)C(N)=O (centres unmarked) [Compound 558, N-(4-amino-3,4-dioxo-1-phenylbutan-2-yl)-5-(5-fluoro-2-methylphenyl)isoxazole-4-carboxamide]",< 3 µM,< 3 µM,< 10 µM,10 to 25 µM,< 3 µM
"NC(=O)C(=O)C(Cc1ccccc1)NC(=O)c1cn(C(F)F)nc1-c1cccc2c1OCO2 (centres unmarked) [Compound 563, N-(4-amino-3,4-dioxo-1-phenylbutan-2-yl)-3-(benzo[d][1,3]dioxol-4-yl)-1-(difluoromethyl)-1H-pyrazole-4-carboxamide]",< 3 µM,< 3 µM,< 10 µM,< 10 µM,< 3 µM
"Cc1ccc(F)c(-c2nn(C(F)F)cc2C(=O)NC(Cc2ccccc2)C(=O)C(N)=O)c1 (centres unmarked) [Compound 564, N-(4-amino-3,4-dioxo-1-phenylbutan-2-yl)-1-(difluoromethyl)-3-(2-fluoro-5-methylphenyl)-1H-pyrazole-4-carboxamide]",< 3 µM,< 3 µM,< 10 µM,< 10 µM,< 3 µM
"Cc1cc(C)cc(-c2nn(C(F)F)cc2C(=O)NC(Cc2ccccc2)C(=O)C(N)=O)c1 (centres unmarked) [Compound 565, N-(4-amino-3,4-dioxo-1-phenylbutan-2-yl)-1-(difluoromethyl)-3-(3,5-dimethylphenyl)-1H-pyrazole-4-carboxamide]",< 3 µM,< 3 µM,> 25 µM,< 10 µM,< 3 µM
"Cc1ccc(F)cc1-c1nn(C(F)F)cc1C(=O)NC(Cc1ccccc1)C(=O)C(N)=O (centres unmarked) [Compound 566, N-(4-amino-3,4-dioxo-1-phenylbutan-2-yl)-1-(difluoromethyl)-3-(5-fluoro-2-methylphenyl)-1H-pyrazole-4-carboxamide]",< 3 µM,< 3 µM,< 10 µM,10 to 25 µM,< 3 µM
"Cn1cc(C(=O)NC(Cc2ccccc2)C(=O)C(N)=O)c(-c2ccc3c(c2)OCO3)n1 (centres unmarked) [Compound 567, N-(4-amino-3,4-dioxo-1-phenylbutan-2-yl)-3-(benzo[d][1,3]dioxol-5-yl)-1-methyl-1H-pyrazole-4-carboxamide]",< 3 µM,< 3 µM,< 10 µM,< 10 µM,< 3 µM

# Further lines, results first:
IC50 (Human Calpain 2/NS1),IC50 (Human Calpain 9/NS1),IC50 [1],IC50 [2],IC50 (Human Calpain 1/NS1),SMILES
< 3 µM,< 3 µM,< 10 µM,< 10 µM,< 3 µM,"NC(=O)C(=O)C(Cc1ccccc1)NC(=O)c1cnoc1-c1ccccc1F (centres unmarked) [Compound 556, N-(4-amino-3,4-dioxo-1-phenylbutan-2-yl)-5-(2-fluorophenyl)isoxazole-4-carboxamide]"
< 3 µM,< 3 µM,< 10 µM,> 25 µM,< 3 µM,"Cc1ccccc1-c1oncc1C(=O)NC(Cc1ccccc1)C(=O)C(N)=O (centres unmarked) [Compound 557, N-(4-amino-3,4-dioxo-1-phenylbutan-2-yl)-5-(o-tolyl)isoxazole-4-carboxamide]"
< 3 µM,< 3 µM,> 25 µM,10 to 25 µM,< 3 µM,"NC(=O)C(=O)C(Cc1ccccc1)NC(=O)c1cnoc1-c1cccc(F)c1 (centres unmarked) [Compound 559, N-(4-amino-3,4-dioxo-1-phenylbutan-2-yl)-5-(3-fluorophenyl)isoxazole-4-carboxamide]"
< 3 µM,< 3 µM,> 25 µM,10 to 25 µM,< 3 µM,"Cc1cccc(-c2oncc2C(=O)NC(Cc2ccccc2)C(=O)C(N)=O)c1 (centres unmarked) [Compound 560, N-(4-amino-3,4-dioxo-1-phenylbutan-2-yl)-5-(m-tolyl)isoxazole-4-carboxamide]"
< 3 µM,< 3 µM,10 to 25 µM,10 to 25 µM,< 3 µM,"NC(=O)C(=O)C(Cc1ccccc1)NC(=O)c1cn(C(F)F)nc1-c1cncc2ccccc12 (centres unmarked) [Compound 561, N-(4-amino-3,4-dioxo-1-phenylbutan-2-yl)-1-(difluoromethyl)-3-(isoquinolin-4-yl)-1H-pyrazole-4-carboxamide]"
> 10 µM,> 10 µM,< 10 µM,> 25 µM,> 10 µM,"CC#Cc1nn(-c2ccccc2)cc1C(=O)NC(Cc1ccccc1)C(=O)C(N)=O (centres unmarked) [Compound 562, N-(4-amino-3,4-dioxo-1-phenylbutan-2-yl)-1-phenyl-3-(prop-1-yn-1-yl)-1H-pyrazole-4-carb oxamide]"
< 3 µM,< 3 µM,< 10 µM,> 25 µM,< 3 µM,"Cn1cc(C(=O)NC(Cc2ccccc2)C(=O)C(N)=O)c(-c2ccnn2C)n1 (centres unmarked) [Compound 568, N-(4-amino-3,4-dioxo-1-phenylbutan-2-yl)-1,2′-dimethyl-1H,2′H-[3,3′-bipyrazole]-4-carboxamide]"
< 3 µM,< 3 µM,10 to 25 µM,> 25 µM,< 3 µM,"Cn1cc(C(=O)NC(Cc2ccccc2)C(=O)C(N)=O)c(-c2cccc3ccccc23)n1 (centres unmarked) [Compound 569, N-(4-amino-3,4-dioxo-1-phenylbutan-2-yl)-1-methyl-3-(naphthalen-1-yl)-1H-pyrazole-4-carboxamide]"

# — US11339130B1 (Blade Therapeutics, Inc., priority 2016, dated 2022)
